PMC9798004 (Frontiers in Psychiatry, 2022)
“And” between values parts separate entries of the source, which are not always exact repeats. Equal values may be shown once.

Tests used:
Type in all cases: cell-based
CXCR1 = biological target: T1, CXCR1 (Homo sapiens, UniProt P25024); assay: PathHunter β-arrestin assay; details: screen, control agonist; U20S, 37C, 2HR
T1 construct: purchased Eurofins DiscoverX (PathHunter gpcrMAX)
T1 sequence (P25024 1-350): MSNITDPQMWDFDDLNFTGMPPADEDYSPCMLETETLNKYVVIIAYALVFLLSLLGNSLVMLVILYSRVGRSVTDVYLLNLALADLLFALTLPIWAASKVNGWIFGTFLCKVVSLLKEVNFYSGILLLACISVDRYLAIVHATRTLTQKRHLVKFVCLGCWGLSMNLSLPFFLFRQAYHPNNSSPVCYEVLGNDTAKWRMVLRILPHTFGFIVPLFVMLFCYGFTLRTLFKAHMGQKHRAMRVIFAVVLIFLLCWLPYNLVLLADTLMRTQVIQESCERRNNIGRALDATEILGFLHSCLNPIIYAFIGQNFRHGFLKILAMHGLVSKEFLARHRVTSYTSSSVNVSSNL

CXCR2 = biological target: T2, CXCR2 (Homo sapiens, UniProt P25025); assay: PathHunter β-arrestin assay; details: screen, control agonist; CHO, 37C, 2HR
T2 construct: purchased Eurofins DiscoverX (PathHunter gpcrMAX)
T2 sequence (P25025 1-360): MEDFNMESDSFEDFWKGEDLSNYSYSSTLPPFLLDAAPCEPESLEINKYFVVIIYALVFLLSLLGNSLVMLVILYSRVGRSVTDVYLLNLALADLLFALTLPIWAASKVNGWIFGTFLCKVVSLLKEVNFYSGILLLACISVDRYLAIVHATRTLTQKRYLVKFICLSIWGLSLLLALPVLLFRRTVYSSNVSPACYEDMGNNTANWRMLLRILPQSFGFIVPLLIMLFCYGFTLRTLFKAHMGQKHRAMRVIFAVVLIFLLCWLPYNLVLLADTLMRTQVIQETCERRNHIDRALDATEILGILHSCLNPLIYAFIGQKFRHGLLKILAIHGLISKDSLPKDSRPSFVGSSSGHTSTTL

CCR2 = biological target: T3, CCR2 (Homo sapiens, UniProt P41597); assay: PathHunter β-arrestin assay; details: screen, control agonist; CHO, 37C, 2HR
T3 construct: purchased Eurofins DiscoverX (PathHunter gpcrMAX)
T3 sequence (P41597 whole entry): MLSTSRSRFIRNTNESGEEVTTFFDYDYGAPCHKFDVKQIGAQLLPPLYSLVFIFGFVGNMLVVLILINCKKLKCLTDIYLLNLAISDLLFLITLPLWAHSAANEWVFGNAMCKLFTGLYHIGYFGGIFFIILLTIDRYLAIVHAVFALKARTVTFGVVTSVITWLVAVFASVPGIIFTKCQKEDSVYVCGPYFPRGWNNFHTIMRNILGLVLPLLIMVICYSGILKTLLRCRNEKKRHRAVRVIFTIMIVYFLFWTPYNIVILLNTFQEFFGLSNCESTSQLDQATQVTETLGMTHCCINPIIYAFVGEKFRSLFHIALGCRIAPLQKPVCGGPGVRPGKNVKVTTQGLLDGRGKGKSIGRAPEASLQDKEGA

CRHR2 = biological target: T4, CRHR2 (Homo sapiens, UniProt Q13324); assay: PathHunter β-arrestin assay; details: screen, control agonist; CHO, RT, 2HR
T4 construct: purchased Eurofins DiscoverX (PathHunter gpcrMAX)
T4 sequence (Q13324 whole entry): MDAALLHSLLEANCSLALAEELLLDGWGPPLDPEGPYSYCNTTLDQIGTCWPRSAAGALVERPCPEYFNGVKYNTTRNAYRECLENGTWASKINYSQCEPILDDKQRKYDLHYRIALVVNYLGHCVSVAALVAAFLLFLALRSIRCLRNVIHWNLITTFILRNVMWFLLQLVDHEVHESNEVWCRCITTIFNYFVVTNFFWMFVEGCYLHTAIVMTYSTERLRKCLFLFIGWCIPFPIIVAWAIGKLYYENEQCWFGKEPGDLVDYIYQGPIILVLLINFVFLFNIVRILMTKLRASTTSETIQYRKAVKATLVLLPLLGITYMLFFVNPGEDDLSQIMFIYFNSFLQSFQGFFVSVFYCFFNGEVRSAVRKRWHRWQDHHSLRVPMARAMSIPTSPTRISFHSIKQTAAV

CHRM2 = biological target: T5, CHRM2 (Homo sapiens, UniProt P08172); assay: PathHunter β-arrestin assay; details: control agonist
T5 sequence (P08172 1-466): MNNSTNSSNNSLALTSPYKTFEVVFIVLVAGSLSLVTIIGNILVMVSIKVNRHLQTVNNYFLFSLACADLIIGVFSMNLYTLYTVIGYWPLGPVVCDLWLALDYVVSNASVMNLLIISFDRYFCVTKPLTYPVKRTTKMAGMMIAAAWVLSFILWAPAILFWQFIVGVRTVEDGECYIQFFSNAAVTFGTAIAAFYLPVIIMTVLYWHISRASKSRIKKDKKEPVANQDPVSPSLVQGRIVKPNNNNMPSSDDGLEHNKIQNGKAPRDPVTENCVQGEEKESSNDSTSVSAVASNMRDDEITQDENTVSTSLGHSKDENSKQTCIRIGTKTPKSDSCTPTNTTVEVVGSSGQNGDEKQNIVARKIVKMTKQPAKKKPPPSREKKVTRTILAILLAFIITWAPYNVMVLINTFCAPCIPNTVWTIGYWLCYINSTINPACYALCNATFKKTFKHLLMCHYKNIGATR

CHRM4 = biological target: T6, CHRM4 (Homo sapiens, UniProt P08173); assay: PathHunter β-arrestin assay; details: screen, control agonist; CHO, 37C, 2HR
T6 construct: purchased Eurofins DiscoverX (PathHunter gpcrMAX)
T6 sequence (P08173 whole entry): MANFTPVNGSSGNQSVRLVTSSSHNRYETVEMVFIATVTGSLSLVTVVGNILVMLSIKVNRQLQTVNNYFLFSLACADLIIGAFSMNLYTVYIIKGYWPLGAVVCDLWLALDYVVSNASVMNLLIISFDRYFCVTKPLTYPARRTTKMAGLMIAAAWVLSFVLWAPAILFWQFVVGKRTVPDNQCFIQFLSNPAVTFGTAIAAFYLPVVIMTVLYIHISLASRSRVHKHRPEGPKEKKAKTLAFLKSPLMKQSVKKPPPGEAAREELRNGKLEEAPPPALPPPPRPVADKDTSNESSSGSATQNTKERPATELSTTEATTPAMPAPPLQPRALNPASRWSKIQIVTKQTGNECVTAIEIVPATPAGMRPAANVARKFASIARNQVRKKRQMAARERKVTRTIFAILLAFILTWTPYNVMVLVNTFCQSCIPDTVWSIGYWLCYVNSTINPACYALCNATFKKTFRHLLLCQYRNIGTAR

CHRM5 = biological target: T7, CHRM5 (Homo sapiens, UniProt P08912); assay: PathHunter β-arrestin assay; details: screen, control agonist; CHO, 37C, 2HR
T7 construct: purchased Eurofins DiscoverX (PathHunter gpcrMAX)
T7 sequence (P08912 whole entry): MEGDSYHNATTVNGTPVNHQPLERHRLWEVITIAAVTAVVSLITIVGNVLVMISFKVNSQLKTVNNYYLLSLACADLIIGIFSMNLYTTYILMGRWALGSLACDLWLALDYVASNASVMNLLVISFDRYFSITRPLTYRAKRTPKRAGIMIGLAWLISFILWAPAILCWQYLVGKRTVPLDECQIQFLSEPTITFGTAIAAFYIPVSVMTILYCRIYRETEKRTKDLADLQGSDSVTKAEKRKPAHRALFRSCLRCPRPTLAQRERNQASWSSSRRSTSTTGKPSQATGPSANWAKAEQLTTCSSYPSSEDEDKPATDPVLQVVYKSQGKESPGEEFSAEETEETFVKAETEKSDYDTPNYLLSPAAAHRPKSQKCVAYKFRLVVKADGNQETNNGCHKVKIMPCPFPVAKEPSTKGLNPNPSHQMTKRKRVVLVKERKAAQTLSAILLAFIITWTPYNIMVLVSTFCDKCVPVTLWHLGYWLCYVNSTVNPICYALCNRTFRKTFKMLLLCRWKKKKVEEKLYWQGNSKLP

CHRM3 = CHRM3 (Homo sapiens, UniProt P20309)
CHRM3, sequence (P20309 whole entry): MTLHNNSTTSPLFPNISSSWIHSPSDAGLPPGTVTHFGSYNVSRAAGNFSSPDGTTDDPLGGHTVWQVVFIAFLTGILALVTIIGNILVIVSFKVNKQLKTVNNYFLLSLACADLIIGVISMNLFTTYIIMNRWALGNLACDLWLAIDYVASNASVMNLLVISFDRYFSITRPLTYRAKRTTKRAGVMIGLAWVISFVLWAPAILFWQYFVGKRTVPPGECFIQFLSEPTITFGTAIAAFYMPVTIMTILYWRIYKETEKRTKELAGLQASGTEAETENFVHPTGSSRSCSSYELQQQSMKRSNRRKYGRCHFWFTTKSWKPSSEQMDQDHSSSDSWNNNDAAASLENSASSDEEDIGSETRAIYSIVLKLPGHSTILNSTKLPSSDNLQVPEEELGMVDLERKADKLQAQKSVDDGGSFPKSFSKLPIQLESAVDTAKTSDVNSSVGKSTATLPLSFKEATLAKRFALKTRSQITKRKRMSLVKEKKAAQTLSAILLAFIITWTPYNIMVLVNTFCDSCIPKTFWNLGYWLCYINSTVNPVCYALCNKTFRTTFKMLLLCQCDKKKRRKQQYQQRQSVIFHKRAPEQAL

CRTH2 = biological target: T8, CRTH2 (Homo sapiens, UniProt Q9Y5Y4); assay: PathHunter β-arrestin assay; details: screen, control agonist; U2OS, RT, 2HR
T8 construct: purchased Eurofins DiscoverX (PathHunter gpcrMAX)
T8 sequence (Q9Y5Y4 whole entry): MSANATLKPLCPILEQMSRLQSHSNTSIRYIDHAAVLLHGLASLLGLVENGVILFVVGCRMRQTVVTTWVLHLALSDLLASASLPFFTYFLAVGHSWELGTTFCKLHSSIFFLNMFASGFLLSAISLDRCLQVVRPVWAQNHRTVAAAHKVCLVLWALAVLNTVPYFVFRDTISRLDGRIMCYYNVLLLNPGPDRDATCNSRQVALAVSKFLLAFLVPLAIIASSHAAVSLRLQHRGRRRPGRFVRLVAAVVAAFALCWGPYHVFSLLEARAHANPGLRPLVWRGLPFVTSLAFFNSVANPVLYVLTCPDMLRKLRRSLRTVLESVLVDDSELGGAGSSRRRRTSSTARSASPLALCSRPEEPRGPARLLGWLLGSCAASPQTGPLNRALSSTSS

CCR7 = biological target: T9, CCR7 (Homo sapiens, UniProt P32248); assay: PathHunter β-arrestin assay; details: screen, control agonist; CHO, 37C, 2HR
T9 construct: purchased Eurofins DiscoverX (PathHunter gpcrMAX)
T9 sequence (P32248 25-378): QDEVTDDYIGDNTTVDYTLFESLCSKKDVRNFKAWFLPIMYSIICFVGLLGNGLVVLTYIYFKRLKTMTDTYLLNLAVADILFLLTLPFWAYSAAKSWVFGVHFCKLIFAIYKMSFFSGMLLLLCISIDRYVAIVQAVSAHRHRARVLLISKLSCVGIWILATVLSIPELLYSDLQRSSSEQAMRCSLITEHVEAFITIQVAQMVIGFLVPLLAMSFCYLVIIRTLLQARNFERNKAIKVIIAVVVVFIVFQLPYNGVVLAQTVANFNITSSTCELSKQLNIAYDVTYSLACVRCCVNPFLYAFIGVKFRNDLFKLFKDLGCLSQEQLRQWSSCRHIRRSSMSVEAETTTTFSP

CX3CR1 = biological target: T10, CX3CR1 (Homo sapiens, UniProt P49238); assay: PathHunter β-arrestin assay; details: screen, control agonist; CHO, 37C, 2HR
T10 construct: purchased Eurofins DiscoverX (PathHunter gpcrMAX)
T10 sequence (P49238 1-355): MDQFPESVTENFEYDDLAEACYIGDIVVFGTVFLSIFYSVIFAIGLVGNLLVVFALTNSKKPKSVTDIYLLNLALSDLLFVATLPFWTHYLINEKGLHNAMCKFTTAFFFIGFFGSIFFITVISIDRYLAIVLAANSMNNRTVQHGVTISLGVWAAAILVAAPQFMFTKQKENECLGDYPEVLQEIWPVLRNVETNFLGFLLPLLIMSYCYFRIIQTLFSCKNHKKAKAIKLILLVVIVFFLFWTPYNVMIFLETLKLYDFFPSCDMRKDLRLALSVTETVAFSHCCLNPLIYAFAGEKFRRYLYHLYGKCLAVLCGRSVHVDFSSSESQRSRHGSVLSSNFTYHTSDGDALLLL

Molecule: CXCL8: control agonist
- EC80 (CXCR1): 0.00495 µM
- EC80 (CXCR2): 0.000953 µM

Molecule: CCL2: control agonist
- EC80 (CCR2): 0.00698 µM

Molecule: Sauvagine
- EC80 (CRHR2): 0.0247 µM

Molecule: CC(=O)OCC[N+](C)(C)C [Acetylcholine]
- EC80 (CHRM2; follow-up concentration-response assays): 24.817 µM
- EC80 (CHRM2; screen, CHO, 37C, 2HR): 24.8 µM
- EC80 (CHRM4): 3.91 µM
- EC80 (CHRM5): 1.03 µM
- EC80 (CHRM3): 3.54 µM and 3.5393 µM

Molecule: CCCCC[C@H](O)/C=C/[C@H]1C(=O)C[C@H](O)[C@@H]1C/C=C\CCCC(=O)O [PGD2]
- EC80 (CRTH2): 0.0238 µM

Molecule: CCL19: control agonist
- EC80 (CCR7): 0.0189 µM

B1: Fractalkine: control agonist (protein, UniProt P78423 25-397, looked up)
Fractalkine: QHHGVTKCNITCSKMTSKIPVALLIHYQQNQASCGKRAIILETRQHRLFCADPKEQWVKDAMQHLDRQAAALTRNGGTFEKQIGEVKPRTTPAAGGMDESVVLEPEATGESSSLEPTPSSQEAQRALGTSPELPTGVTGSSGTRLPPTPKAQDGGPVGTELFRVPPVSTAATWQSSAPHQPGPSLWAEAKTSEAPSTQDPSTQASTASSPAPEENAPSEGQRVWGQGQSPRPENSLEREEMGPVPAHTDAFQDWGPGSMAHVSVVPVSSEGTPSREPVASGSWTPKAEEPIHATMDPQRLGVLITPVPDAQAATRRQAVGLLAFLGLLFCLGVAMFTYQSLQGCPRKMAGEMAEGLRYIPRSCGSNSYVLVPV
- EC80 (CX3CR1): 0.00192 µM
